Assay [1] has as its system SKOV3 cells. Description: SKOV3 cell viability (CellTiter-Glo) with SW IV-134 alone or with pathway blockers. The class given is cell-based. The protocol:
Figure 3 Treatment with SW IV-134 results in caspase-mediated cell death. (A) Cells were treated with vehicle only (Ctrl.), SW43 (10 μM), and SW IV-134 (10 μM) for 24 hours. Cell lysates were subjected to Western blot analysis, and probed with antibodies specific for the precursors and activated forms of caspases 8, 9, and 3. (B) SKOV3 cells were treated with SW IV-134 at indicated doses either alone or in the presence of the pan-caspase inhibitor Z-VAD-FMK (20 μM) for 18 hours. Cell viability was determined by CellTiter-Glo assays (p < 0.018, Student’s t-test).
Figure 4 SW IV-134 engages in SMAC-dependent pathway activation. (A) SKOV3 cells were treated with vehicle only (Ctrl.), SW43 (10 μM), and SW IV-134 (10 μM) for 4 hours and cell lysates were subjected to Western blot analysis using antibodies against XIAP, cIAP-1, cIAP-2, NF-қB and NIK. While XIAP seems unaffected under the conditions used, cIAP-1 and cIAP-2 proteins are readily undetectable shortly post treatment. SW IV-134 treatment also leads to accumulation of NF-қB inducing kinase (NIK) and activation of NF-қB pathway. (B) SKOV3 cells were treated with SW IV-134 at the indicated doses either alone or in the presence of proteasome inhibitor MG132 (20 μM) for 18 hours. […] Cell viability was determined as described in the experimental methods (p < 0.011, Student’s t-test).
Figure 5 SW IV-134 induces activation of the TNFα-dependent extrinsic death pathway. (A) Quantitative real-time PCR analysis of TNFα mRNA expression was done on RNA samples derived from SKOV3 cells treated with SW IV-134 (1 μM and 3 μM) for indicated time periods. All values were normalized to a GAPDH internal control (p < 0.0001, one-way ANOVA). […] Cell viability was determined as described in the experimental methods (p < 0.019, Student’s t-test).
Cells (1 × 10^4) were seeded into 96 well plates. […] Cell viability was determined 18 hours after treatment using CellTiter-Glo Luminiscent Viability Assay (Promega, Madison, WI). Data were recorded with a SpectraMax Gemini microplate spectrofluorometer, Molecular Devices (Silicon Valley, CA).
In general terms: ATP-based viability assays read luminescence as a measure of living cells.

Assay [2] deals with SKOV3 cells. Description: Annexin V binding (apoptosis), flow cytometry. Type of assay: cell-based. The conditions noted are these: SKOV3 cells, 3, 6 and 10 μM, 16 hours. How it is done: SKOV3 cells were treated with different concentrations of SW IV-134 (3 μM, 6 μM, and 10 μM) for 16 hours. Staining was performed using the Annexin V Apoptosis Detection Kit (BioLegend, San Diego, CA) according to the manufacturer’s instructions. The apoptosis rate was determined by flow cytometry (FACSCalibur, BD Biosciences, San Jose, CA).
Supplementary file 1476-4598-13-50-S4.pdf: Additional file 4: Figure S3 Flow cytometric determination of apoptosis. SKOV3 cells were treated with increasing concentrations of SW IV-134. Untreated cells served as a negative staining control. The cells were then assessed for apoptosis induction by flow cytometry following staining with propidium iodide/Annexin V. Click here for file
Background: Flow cytometry measures light scatter and fluorescence of single cells or particles in a stream.

The values that follow come from paper PMC4015918, “Conjugation to a SMAC mimetic potentiates sigma-2 ligand induced tumor cell death in ovarian cancer” (Molecular Cancer, 2014).

Molecules are shown by their SMILES.

For `COc1ccc(C)cc1NC(=O)OC1CC2CCCC(C1)N2CCCCCCCCCCN[C@@H](C)C(=O)N[C@H](C(=O)N1CCC[C@H]1C(=O)N[C@@H]1CCCc2ccccc21)C(C)(C)C` (stereo partly shown) [SW IV-134], the “Cell death induced by SW IV-134 in the presence of TNFα-blocking antibody” value with SKOV3 cells [1] (SKOV3, 18 hours) was “significant protection from cell death”. In addition, the “SW IV-134 mediated cell death in the presence of proteasome inhibitor MG132” value in the assay on SKOV3 cells [1] (SKOV3, MG132 20 μM, 18 hours) is “significantly reduced”. In addition, the “SW IV-134 induced cell death in the presence of pan-caspase inhibitor Z-VAD-FMK” value in the assay with SKOV3 cells [1] (SKOV3, Z-VAD-FMK 20 μM, 18 hours) is listed as “significantly reduced”. Besides, the “Annexin V binding” value in the assay on SKOV3 cells [2] is reported as “increased Annexin V binding relative to the untreated control cells in a dose dependent manner”.
